Data from US5763597A, “Orally active adenosine kinase inhibitors” (priority 1996, dated 1998).
Like-named read-outs stand apart in the source and are kept apart here.

Columns and labels:
rat cardiomyocytes = conditions: cited from earlier work
[1] = background; hence potentially short half life; cited from earlier work
[2] = test system: isolated guinea pig hearts; conditions: without ADA inhibition; cited from earlier work
guinea pig brain slices = conditions: cited from earlier work
rat brain slices = conditions: cited from earlier work
mice = conditions: cited from earlier work; for general flaccidity and spontaneous locomotor activity: interpreted to be skeletal muscle relaxation
dog hearts = conditions: cited from earlier work
[3] = background; cited from earlier work
isolated rat hearts = conditions: compound alone, cited from earlier work
adenosine kinase = assay: AK inhibition (adenosine kinase activity, [U-14C] adenosine); type: biochemical, partially purified pig heart or recombinant human; conditions: 0.5 μM adenosine, 1 mM ATP, pH 7.0, 20 min; pig heart or recombinant human enzyme
Protocol: Adenosine kinase activity was measured essentially as described by Yamada et al. Biochim. Biophys. Acta 660, 3643 (1988) with a few minor modifications. Assay mixtures contained 50 mM TRIS-maleate buffer, pH 7.0, 0.1% BSA, 1 mM ATP 1 mM MgCl2, 0.5 μM [U-^14 C] adenosine (400-600 mCi/mmol) and varying duplicate concentrations of inhibitor. […] The amount of ^14 C-AMP was quantified by scintillation counting.

[4] = test system: hot plate pain response in male SA rats; assay: Analgesic activity, hot plate; type: in vivo; conditions: rat, po
Text: Ther., 250:3, 915-922 (1989). See also, Life Sciences 51:171-76 (1992). These models measure pain avoidance and tolerance in response to a regulated stimulus, and compare the response of animals before and after they are given test compound.

[5] = test system: carrageenan paw swelling in rats; assay: Anti-inflammatory activity, carrageenan paw swelling; type: in vivo; conditions: rat, swelling after 3 hours; for Carrageenan Paw (% inh) ip: 10 mg/kg ip, 30 min before carrageenan; for Carrageenan Paw (% inh) po: 10 mg/kg po, 1 h before carrageenan
[6] = test system: formalin-induced pain in rats; assay: Analgesic activity, formalin paw model; type: in vivo; conditions: rat, oral, 20 mg/kg; for % Inhibition Phase 1 Composite score: Phase 1 (1.7-5 min post-formalin); for % Inhibition Phase 2 Composite score: Phase 2 (10.3-30 min post-formalin); for % Inhibition Phase 2 Licking/biting: Phase 2, licking/biting incidences
Text: Pharmacol. Exper. Ther., 250:3, 915-922 (1989). See also, Life Sciences 51:171-76 (1992). These models measure pain avoidance and tolerance in response to a regulated stimulus, and compare the response of animals before and after they are given test compound. Formalin Paw Assay In this assay, injection of formalin, an irritant, into the hindpaw of rats typically evokes a biphasic response of pain-related behaviors. […] Phase I behavior is thought to be a direct effect of the irritant on nociceptors at the injection site while phase 2 behavior is thought to include a hyperalgesic component mediated by sensitization of neuronal elements within the spinal cord. Studies from other laboratories have found the first portion of Phase 2 (sometimes referred to as Phase 2a) to be most responsive to pharmacological manipulation. Rats (male, Simonsen) weighing between 100-200 g, are used in the present experiments. For screening purposes drugs are administered orally 90 min prior to initiation of formalin test. […] The rat is then immediately placed in a separate plexiglass box and scoring (described below) of the animal's behavior is begun at 1.7 min after formalin injection. […] This sequence is repeated over a 30 min period. […] Scores are continuously recorded directly onto an Excel spreadsheet.

[7] = Oral bioavailability in dogs; type: in vivo, female beagle dogs; conditions: dog, 10 mg/kg oral versus iv, dose-corrected AUC to infinity, PEG-400
Protocol: Oral bioavailability was determined by comparing the dose corrected areas under the plasma-concentration time curve (AUC) to infinity for the each tested compound, given orally and intravenously in dogs. […] One dog received this solution at an infusion rate of 0.1 mL/min for 20 minutes. The other dog received a 0.2 mL/in infusion for 10 minutes. […] The plasma was separated within 10 minutes of blood collection and was stored frozen. The plasma concentration of compound was then determined for these IV infusions. […] The plasma concentration of compound was determined for this oral administration. The samples were assayed for intact adenosine kinase inhibitor by high performance liquid chromatography (HPLC). An internal standard was added to each test sample and standard sample. Each was then extracted with 10 volumes of 1% v/v dimethylsulfoxide in acetonitrile. […] The dried residue was reconstituted in mobile phase and the contents were analyzed for the adenosine kinase inhibitor (AKI) on HPLC. […] Pharmacokinetic parameters were calculated from the plasma concentration vs. time data, using standard non-compartmental methods. […] (1983).

[8] = test system: maximal electroshock seizures (hind limb tonic extension) in male SA rats; assay: Anticonvulsant activity, maximal electroshock (MES) model; type: in vivo; conditions: rat
[9] = po, fasted overnight, ">>" (written >) = no activity at stated dose, read-out: Anticonvulsant ED50 (MES) po
[10] = ip, ">5" = HTE inhibited in fewer than 50% of animals at 5 mg/kg screen, ">>" (written >) = no activity, "<" = maximal activity at stated dose, read-out: Anticonvulsant ED50 (MES) ip

Structure (SMILES): OC[C@H]1O[C@@H](n2cnc3c2N=CNC[C@H]3O)C[C@@H]1O [2'-deoxycoformycin]
- effect on adenosine release from the cells (rat cardiomyocytes; adenosine deaminase inhibition): no effect on adenosine release from the cells

Structure (SMILES): NC[C@H]1O[C@@H](n2cnc3c(N)ncnc32)[C@H](O)[C@@H]1O [5'-amino-5'-deoxyadenosine]
- increase in adenosine release (rat cardiomyocytes; together with ADA inhibition): 6 fold
- susceptibility to deamination [1]: susceptibility of 5'-amino-5'-deoxyadenosine to deamination
- adenosine release in the absence of ADA inhibition [2]: These effects were not apparent in the absence of ADA inhibition

Structure (SMILES): C[C@H]1O[C@@H](n2cc(I)c3c(N)ncnc32)[C@H](O)[C@@H]1O [5'-deoxy-5-iodotubercidin]
- adenosine uptake, guinea pig brain slices (guinea pig brain slices): adenosine uptake was reportedly inhibited
- adenosine uptake, rat brain slices (rat brain slices): adenosine uptake was reportedly inhibited
- body temperature (hypothermia) (mice): hypothermia
- general flaccidity and spontaneous locomotor activity (mice): pronounced general flaccidity and much-reduced spontaneous locomotor activity

Structure (SMILES): Nc1ncnc2c1c(I)cn2[C@@H]1O[C@H](CO)[C@@H](O)[C@H]1O [5-iodotubercidin]
- adenosine uptake, guinea pig brain slices (guinea pig brain slices): adenosine uptake was reportedly inhibited
- effects in dog heart ischemia and reperfusion (dog hearts): inconsistent effects
- cytotoxicity [3]: cytotoxicity of 5-iodotubercidin
- perfusate adenosine concentration, hypoxic, anoxic or ischemic (isolated rat hearts; hypoxic, anoxic or ischemic conditions): no increase in perfusate adenosine concentration
- perfusate adenosine concentration, normoxic (isolated rat hearts; normoxic conditions): no increase in perfusate adenosine concentration
- adenosine uptake, rat brain slices (rat brain slices): adenosine uptake was reportedly inhibited
- body temperature (hypothermia) (mice): hypothermia
- general flaccidity and spontaneous locomotor activity (mice): pronounced general flaccidity and much-reduced spontaneous locomotor activity

Structure (SMILES): C[C@H]1O[C@@H](n2cc(-c3ccccc3)c3c(Nc4ccc(F)cc4)ncnc32)[C@H](O)[C@@H]1O [compound 1]
- IC50 (adenosine kinase): 11 nM
- ED50 [4]: 16.6 mg/kg
- Carrageenan Paw (% inh) ip [5]: 3.5 % inh
- Carrageenan Paw (% inh) po [5]: 0.2 % inh
- % Inhibition Phase 1 Composite score [6]: 7.4%
- % Inhibition Phase 2 Composite score [6]: 33.3%
- % Inhibition Phase 2 Licking/biting [6]: 59%

Structure (SMILES): C[C@H]1O[C@@H](n2cc(-c3ccc(F)cc3)c3c(Nc4ccc(F)cc4)ncnc32)[C@H](O)[C@@H]1O [compound 2]
- % Oral Availability [7]: 47%

Structure (SMILES): CC(=O)Nc1ccc(Nc2ncnc3c2c(-c2ccccc2)cn3[C@@H]2O[C@H](C)[C@@H](O)[C@H]2O)cc1 [compound 32]
- IC50 (adenosine kinase): 0.5 nM
- % Inhibition Phase 1 Composite score [6]: 0%
- % Inhibition Phase 2 Composite score [6]: 30.9%
- % Inhibition Phase 2 Licking/biting [6]: 56%
- ED50 [8, 9]: > 10 mg/kg

Structure (SMILES): C[C@H]1O[C@@H](n2cc(-c3ccccc3)c3c(Nc4ccc(S(N)(=O)=O)cc4)ncnc32)[C@H](O)[C@@H]1O [compound 34]
- IC50 (adenosine kinase): 5 nM
- Carrageenan Paw (% inh) ip [5]: 1.7 % inh
- Carrageenan Paw (% inh) po [5]: 0 % inh
- ED50 [8, 9]: > 10 mg/kg

Structure (SMILES): [N-]=[N+]=NC[C@H]1O[C@@H](n2nc(-c3cccs3)c3c(Nc4ccccc4)ncnc32)[C@H](O)[C@@H]1O [compound 97]
- IC50 (adenosine kinase): 10 nM
- Anticonvulsant ED50 (MES) ip ([8]; ip, ">5" = HTE inhibited in fewer than 50% of animals at 5 mg/kg screen, ">>" (written >) = no activity, "<" = maximal activity at stated dose): > 5 mg/kg

Structure (SMILES): CCOC(=O)Cc1ccc(Nc2ncnc3c2c(-c2ccccc2)cn3[C@@H]2O[C@H](C)[C@@H](O)[C@H]2O)cc1 [compound 127]
- IC50 (adenosine kinase): 2 nM
- Carrageenan Paw (% inh) ip [5]: 5.4 % inh
- Carrageenan Paw (% inh) po [5]: 2.9 % inh
- ED50 [8, 10]: 5 mg/kg

Structure (SMILES): C[C@H]1O[C@@H](n2cc(-c3ccc(CO)cc3)c3c(Nc4ccccc4)ncnc32)[C@H](O)[C@@H]1O [compound 130]
- IC50 (adenosine kinase): 6 nM
- Carrageenan Paw (% inh) ip [5]: 0.0 % inh
- Carrageenan Paw (% inh) po [5]: 3.9 % inh
- ED50 [8, 10]: > 5 mg/kg
